Laboratory results reported in patent US20030013643A1, “Prevention and treatment of streptococcal and staphylococcal infection” (priority 2000, published 2003).

How the values were obtained:
[1] = test system: Group B Streptococcus (GBS, strain 515); assay: Bacterial binding to human keratinocyte monolayers, GBS; type: cell-based; conditions: 1 mg/ml pre-incubation; multiplicity of infection 10; 1 hour
Protocol: Keratinocyte monolayers were prepared as descibed above in Methods section and pre-incubated with 1 mg/ml alginate (AL, solid bars) or 1 mg/ml hyaluronic acid (HA, hatched bars) prior to surface inoculation (as described above in Methods) with either Group A Streptococcus (GAS, strain 950771), Group B Streptococcus (GBS, strain 515), Streptococcus pneumoniae (S. pneumo, type 6), or Staphylococcus aureus (S. aureus, type 8) at a multiplicity of infection of 10 bacteria per keratinocyte for 1 hour.

[2] = test system: GAS; assay: GAS attachment to murine keratinocyte cell line PAM2.12 with exogenous hyaluronic acid; type: cell-based, Streptococcus pyogenes
Protocol: For bacterial adherence assays, keratinocytes were seeded at 10^5 cells per well in collagen-coated tissue culture wells (Nalge Nunc International, Naperville, Ill.), incubated for 3 days at 34° C. in 8% CO2, washed, and overlaid with medium containing 10^6 CFU of GAS per well. After incubation for 1 hour at 34° C. in 8% CO2 the keratinocyte monolayers were washed twice to remove nonadherent bacteria, then the number of cell-associated bacteria was determined by quantitative culture after releasing the keratinocytes with try spin and lysing them in sterile water, experiments testing the effects of exogenous hyaluronic acid on GAS adherence were performed using the mouse keratinocyte cell line, PAM 2.12 (Song, I. S. 2000, Exp. Dermatol. 9:42-52). Cells were seeded in collagen-coated tissue culture wells at 10^5 cells per well, cultured for 3 days at 37° C. in 5% CO2, then inoculated with 10^6 CFU of GAS per well in medium containing exogenous hyaluronic acid (from rooster comb, Sigma Chemicals, St. Louis, Mo.), no inhibitor, or a control polysaccharide, alginic acid, a high-molecular-weight polymer of mannuronic acid and guluronic acid (Protonal Durvillea Alginate, Pronova. Biopolymer, Inc., Portsmouth, N.H.). Cells were incubated for 45 minutes at 37° C. in 5% CO2, then processed for enumeration of adherent bacteria as described above. In experiments to test whether exogenous hyaluronic acid could promote dissociation of GAS attached to keratinocytes, GAS were allowed to attach to keratinocytes in the absence of inhibitor; after 45 minutes, the medium was removed and replaced with fresh medium containing hyaluronic acid, no inhibitor, or alginic acid. After 45 minutes of incubation, the number of adherent bacteria was enumerated as described above.
To investigate the specificity of the interaction between the GAS capsule and CD44 on epithelial cells, the ability of exogenous hyaluronic acid to compete with GAS for binding to murine keratinocytes was examined. Addition of exogenous hyaluronic acid to concentration 1 mg/ml[…], inhibited GAS attachment to the murine keratinocyte cell line PAM2.12 by >95% (P<0.03, FIG. 5). A concentration of 1 /ml alginic acid, another high molecular weight acidic polysaccharide, had no effect, supporting the hypothesis that adherence depends on a specific interaction between the GAS hyaluronic acid capsule and CD44 .
In addition to the 1 mg/ml concentration of hyaluronic acid, additional trials were performed as indicated above, with a range of concentrations of hyaluronic acid added to the cells. The concentrations tested included 4 mg/ml, 2 mg/ml, 1 mg/ml, 0.75 mg/ml, 0.5 mg/ml, 0.25 mg/ml and 0.1 mg/ml. The hyaluronic acid concentrations from 4 mg/ml to 0.25 mg/ml blocked GAS binding by greater than 70%. Hyaluronic acid concentrations from 4 mg/ml to 0.5 mg/ml blocked GAS binding by greater than 80% (FIG. 6).

[3] = test system: GAS; assay: GAS translocation through abraded human skin equivalent; type: cell-based, Streptococcus pyogenes; conditions: pre-treated at 2 mg/ml for 1 hour; 4 hour infection period
Protocol: To examine GAS translocation in a model system similar to normal human skin, we utilized pseudo-organ cultures of human skin equivalent. This material is made by constructing a “dermis” that consists of human fibroblasts cultured in a collagen matrix; human foreskin keratinocytes are seeded on top of the dermal equivalent and cultured under conditions that promote differentiation into a stratified squamous epithelium with a stratum comeum. The histology of the human skin equivalent is very similar to that of normal human skin except for the absence of non-keratinocyte elements such as blood vessels and hematopoietic cells, nerves, and hair follicles. Since intact human skin is highly resistant to GAS infection, we simulated minor trauma to the superficial epidermis by abrading the surface of the skin equivalent with a cytology brush to introduce breaks in the stratum corneum. GAS were inoculated onto the surface of abraded skin equivalent that had either been pre-treated with nothing, HA, or AL at 2 mg/ml for 1 hour and translocation through the tissue was monitored by culture of GAS from the basal surface of the skin equivalent at intervals. As depicted in FIG. 10, HA inhibited translocation GAS by 91% (solid bars). In comparison the AL control prevented only 14% of bacteria from translocating through the skin equivalent during the 4 hour infection period. […]

hyaluronic acid
inhibition of binding [1]: more than 80%
reduction in bacterial attachment ([2]; added up to 45 minutes after adding GAS to the keratinocytes, P<0.03): > 90%
reduction of GAS attachment ([2]; addition delayed for 2 hours, P<0.03): 70-80%
blocking of GAS binding ([2]; concentrations from 4 mg/ml to 0.25 mg/ml): greater than 70%
blocking of GAS binding ([2]; concentrations from 4 mg/ml to 0.5 mg/ml): greater than 80%
inhibition of GAS attachment to PAM2.12 ([2]; hyaluronic acid 1 mg/ml added with GAS, P<0.03): > 95%
inhibition of translocation of GAS through skin equivalent [3]: 91%
